Literature values in patent publication US10251409B2, “Mixtures of matter” (SYMRISE AG, priority 2013, dated 2019).

Conditions: compared with sugar

In the case of `C=C1C[C@@]23CC[C@H]4[C@@](C)(CCC[C@@]4(C)C(=O)O[C@@H]4O[C@H](CO)[C@@H](O)[C@H](O)[C@H]4O)[C@@H]2CC[C@]1(O[C@@H]1O[C@H](CO)[C@@H](O)[C@H](O[C@@H]2O[C@H](CO)[C@@H](O)[C@H](O)[C@H]2O)[C@H]1O[C@@H]1O[C@H](CO)[C@@H](O)[C@H](O)[C@H]1O)C3` [rebaudioside A], the “Sweetening power relative to sugar” value is given as “up to 450 times”.
